Assay results published in patent US20210254056A1, “IDENTIFICATION AND TARGETED MODULATION OF GENE SIGNALING NETWORKS” (CAMP4 THERAPEUTICS CORPORATION, priority 2017, published 2021).

Tested on: hepatocytes
Assay: RNA-seq of hepatocytes treated with Phase III failure compounds
Description: RNA-seq was performed to determine the effects of the compounds on hepatocytes.
Significance was determined by the criteria of FPKM≥0.5, a log 2(fold-change)≥1, and a […].

CCC(CC)[C@H](NC(C)=O)[C@@H]1[C@H](O)[C@@H](C(=O)O)C[C@H]1NC(=N)N.O.O.O [peramivir (trihydrate), peramivir]
RNA-seq results, gene PFKM (PFKM expression in hepatocytes): 0.02 | RNA-seq results, gene PGM1 (PGM1 expression in hepatocytes): 0.01 | RNA-seq results, gene PHGDH (PHGDH expression in hepatocytes): 0.67 | RNA-seq results, gene PHKA1 (PHKA1 expression in hepatocytes): 0.42 | RNA-seq results, gene PHKA2 (PHKA2 expression in hepatocytes): −0.03 | RNA-seq results, gene PHKB (PHKB expression in hepatocytes): −0.06 | RNA-seq results, gene PHYH (PHYH expression in hepatocytes): −0.05 | RNA-seq results, gene PIEZO1 (PIEZO1 expression in hepatocytes): 0.08 | RNA-seq results, gene PIGA (PIGA expression in hepatocytes): −0.01 | RNA-seq results, gene PIGM (PIGM expression in hepatocytes): 0.04 | RNA-seq results, gene PKD1 (PKD1 expression in hepatocytes): 0.39 | RNA-seq results, gene PKD2 (PKD2 expression in hepatocytes): −0.13 | RNA-seq results, gene PKHD1 (PKHD1 expression in hepatocytes): −0.79 | RNA-seq results, gene PKLR (PKLR expression in hepatocytes): 0.01 | RNA-seq results, gene PLA2G6 (PLA2G6 expression in hepatocytes): 0.31 | RNA-seq results, gene PLEKHM1 (PLEKHM1 expression in hepatocytes): 0.52 | RNA-seq results, gene PMVK (PMVK expression in hepatocytes): 0.33 | RNA-seq results, gene PNP (PNP expression in hepatocytes): 0.05 | RNA-seq results, gene PNPLA2 (PNPLA2 expression in hepatocytes): 0.19 | significant modulation of expression of disease genes (RNA-seq, q≤0.05, hepatocytes, genes in the value or listed in the block): significantly (q≤0.05) modulate expression of RMRP | RNA-seq results: A1BG expression (gene A1BG, hepatocytes): 0.02 | RNA-seq results: AARS2 expression (gene AARS2, hepatocytes): 0.27 | RNA-seq results: AASS expression (gene AASS, hepatocytes): −0.12 | RNA-seq results: ABAT expression (gene ABAT, hepatocytes): −0.09 | RNA-seq results: ABCA1 expression (gene ABCA1, hepatocytes): −0.04 | RNA-seq results: ABCB4 expression (gene ABCB4, hepatocytes): 0.01 | RNA-seq results: ABCB11 expression (gene ABCB11, hepatocytes): 0.20 | RNA-seq results: ABCC2 expression (gene ABCC2, hepatocytes): 0.02 | RNA-seq results: ABCC3 expression (gene ABCC3, hepatocytes): 0.32 | RNA-seq results: ABCC6 expression (gene ABCC6, hepatocytes): 0.47 | RNA-seq results: ABCD1 expression (gene ABCD1, hepatocytes): 0.25 | RNA-seq results: ABCD3 expression (gene ABCD3, hepatocytes): −0.28 | RNA-seq results: ABCG5 expression (gene ABCG5, hepatocytes): 0.09 | RNA-seq results: ABCG8 expression (gene ABCG8, hepatocytes): 0.06 | RNA-seq results: ABHD5 expression (gene ABHD5, hepatocytes): −0.22 | RNA-seq results: ACACA expression (gene ACACA, hepatocytes): 0.04 | RNA-seq results: ACACB expression (gene ACACB, hepatocytes): 0.36 | RNA-seq results: ACAD9 expression (gene ACAD9, hepatocytes): 0.00 | RNA-seq results: ACADSB expression (gene ACADSB, hepatocytes): −0.29 | RNA-seq results: ACADVL expression (gene ACADVL, hepatocytes): 0.30 | RNA-seq results: ACOT8 expression (gene ACOT8, hepatocytes): −0.13 | RNA-seq results: ACOX2 expression (gene ACOX2, hepatocytes): −0.03 | RNA-seq results: ACOX3 expression (gene ACOX3, hepatocytes): −0.01 | RNA-seq results: ACSF3 expression (gene ACSF3, hepatocytes): 0.08 | RNA-seq results: ACSL1 expression (gene ACSL1, hepatocytes): −0.03 | RNA-seq results: ACSL3 expression (gene ACSL3, hepatocytes): −0.34 | RNA-seq results: ACTG2 expression (gene ACTG2, hepatocytes): −1.66 | RNA-seq results: ACTN1 expression (gene ACTN1, hepatocytes): −0.03 | RNA-seq results: ADA expression (gene ADA, hepatocytes): 0.16 | RNA-seq results: ADCK3 expression (gene ADCK3, hepatocytes): −0.02 | RNA-seq results: ADK expression (gene ADK, hepatocytes): −0.46 | RNA-seq results: ADSL expression (gene ADSL, hepatocytes): −0.36 | RNA-seq results: AFP expression (gene AFP, hepatocytes): −0.31 | RNA-seq results: AGK expression (gene AGK, hepatocytes): −0.24 | RNA-seq results: AGL expression (gene AGL, hepatocytes): −0.20 | RNA-seq results: AGPAT2 expression (gene AGPAT2, hepatocytes): 0.36 | RNA-seq results: AGPS expression (gene AGPS, hepatocytes): −0.31 | RNA-seq results: AGT expression (gene AGT, hepatocytes): −0.08 | RNA-seq results: AGTR1 expression (gene AGTR1, hepatocytes): −0.40 | RNA-seq results: AGXT expression (gene AGXT, hepatocytes): 0.44 | RNA-seq results: AHI1 expression (gene AHI1, hepatocytes): −0.18 | RNA-seq results: AHSG expression (gene AHSG, hepatocytes): 0.03 | RNA-seq results: AK1 expression (gene AK1, hepatocytes): −0.06 | RNA-seq results: AKR1C1 expression (gene AKR1C1, hepatocytes): −0.24 | RNA-seq results: AKR1C2 expression (gene AKR1C2, hepatocytes): 0.07 | RNA-seq results: AKR1C4 expression (gene AKR1C4, hepatocytes): −0.41 | RNA-seq results: AKR1D1 expression (gene AKR1D1, hepatocytes): −0.04 | RNA-seq results: ALAD expression (gene ALAD, hepatocytes): 0.07 | RNA-seq results: ALAS1 expression (gene ALAS1, hepatocytes): −0.13 | RNA-seq results: ALDH1B1 expression (gene ALDH1B1, hepatocytes): 0.10 | RNA-seq results: ALDH2 expression (gene ALDH2, hepatocytes): 0.07 | RNA-seq results: ALDH6A1 expression (gene ALDH6A1, hepatocytes): −0.48 | RNA-seq results: ALDOA expression (gene ALDOA, hepatocytes): 0.01 | RNA-seq results: ALDOB expression (gene ALDOB, hepatocytes): −0.08 | RNA-seq results: ALG12 expression (gene ALG12, hepatocytes): 0.02 | RNA-seq results: ALMS1 expression (gene ALMS1, hepatocytes): −0.05 | RNA-seq results: ALPL expression (gene ALPL, hepatocytes): −0.08 | RNA-seq results: AMACR expression (gene AMACR, hepatocytes): −0.17 | RNA-seq results: AMPD3 expression (gene AMPD3, hepatocytes): 0.13 | RNA-seq results: AMT expression (gene AMT, hepatocytes): 0.24 | RNA-seq results: ANGPTL3 expression (gene ANGPTL3, hepatocytes): −0.42 | RNA-seq results: ANKS4B expression (gene ANKS4B, hepatocytes): −0.06 | RNA-seq results: ANKS6 expression (gene ANKS6, hepatocytes): 0.15 | RNA-seq results: ANPEP expression (gene ANPEP, hepatocytes): 0.07 | RNA-seq results: AOC2 expression (gene AOC2, hepatocytes): 0.42 | RNA-seq results: AP3B1 expression (gene AP3B1, hepatocytes): −0.40 | RNA-seq results: APC expression (gene APC, hepatocytes): −0.20 | RNA-seq results: APOA1 expression (gene APOA1, hepatocytes): −0.02 | RNA-seq results: APOA2 expression (gene APOA2, hepatocytes): −0.52 | RNA-seq results: APOA5 expression (gene APOA5, hepatocytes): 0.13 | RNA-seq results: APOB expression (gene APOB, hepatocytes): −0.10 | RNA-seq results: APOC2 expression (gene APOC2, hepatocytes): −0.17 | RNA-seq results: APOC3 expression (gene APOC3, hepatocytes): −0.06 | RNA-seq results: APOE expression (gene APOE, hepatocytes): 0.04 | RNA-seq results: APRT expression (gene APRT, hepatocytes): 0.23 | RNA-seq results: AQP7 expression (gene AQP7, hepatocytes): −0.41 | RNA-seq results: AQP9 expression (gene AQP9, hepatocytes): −0.29 | RNA-seq results: ARG1 expression (gene ARG1, hepatocytes): 0.02 | RNA-seq results: ARG2 expression (gene ARG2, hepatocytes): −0.34 | RNA-seq results: ARL13B expression (gene ARL13B, hepatocytes): −0.24 | RNA-seq results: ARSA expression (gene ARSA, hepatocytes): 0.49 | RNA-seq results: ARSB expression (gene ARSB, hepatocytes): 0.03 | RNA-seq results: ASL expression (gene ASL, hepatocytes): 0.25 | RNA-seq results: ASNS expression (gene ASNS, hepatocytes): −0.22 | RNA-seq results: ASPA expression (gene ASPA, hepatocytes): −0.10 | RNA-seq results: ASXL1 expression (gene ASXL1, hepatocytes): 0.09 | RNA-seq results: ATG7 expression (gene ATG7, hepatocytes): −0.05 | RNA-seq results: ATIC expression (gene ATIC, hepatocytes): −0.26 | RNA-seq results: ATM expression (gene ATM, hepatocytes): 0.16 | RNA-seq results: ATP7A expression (gene ATP7A, hepatocytes): −0.27 | RNA-seq results: ATP7B expression (gene ATP7B, hepatocytes): 0.00 | RNA-seq results: ATP8B1 expression (gene ATP8B1, hepatocytes): −0.26 | RNA-seq results: B2M expression (gene B2M, hepatocytes): −0.52 | RNA-seq results: B9D2 expression (gene B9D2, hepatocytes): 0.35 | RNA-seq results: BAAT expression (gene BAAT, hepatocytes): −0.23 | RNA-seq results: BBOX1 expression (gene BBOX1, hepatocytes): −0.71 | RNA-seq results: BBS10 expression (gene BBS10, hepatocytes): −0.36 | RNA-seq results: BCHE expression (gene BCHE, hepatocytes): −0.32 | RNA-seq results: BCKDHB expression (gene BCKDHB, hepatocytes): −0.10
